Laboratory results from patent US5783434A, “Cathepsin and methods and compositions for inhibition thereof” (priority 1995, dated 1998).
“Also recorded” adds a separate entry of the source. Where a SMILES comes first, the peptide text is derived from it. [ ]: non-standard residue; d: D form. The star is where a group is joined. Cbz = O=C(OCc1ccccc1)*

Columns and labels:
Format in all cases: biochemical
[1] = target: T1, Cathepsin Y (Homo sapiens, UniProt Q9UBR2); assay: Inhibition of Cathepsin Y carboxypeptidase activity (o-phthalaldehyde fluorescence, acetylated EGYYGNYGV substrate); conditions: pH 4.5
T1 construct: source of the purified preparation not in excerpts; cDNA from human HS683 cells, expressed in 293 cells
Procedure: (§1) This is accomplished by reacting with the reagent o-phthalaldehyde in an alkaline solution in the presence of 2-mercaptoethanol (Simons, et al., JACS, 98:7098-7099, (1976)).
(§2) A standard curve was constructed by incubating varying concentrations of valine (0-20 μM) in 0.25M sodium borate, pH 10, containing 0.05% 2-mercaptoethanol and 60 μg/mL o-phthalaldehyde, in individual wells of a 96 well microtiter plate. The resulting fluorescence is read in a plate reading Cytofluor (ex 340, em 460 nm). There is a linear increase in the signal proportional to the amount of free valine present (FIG. 7).
(§3) In order to determine the pH optimum of the enzyme, reaction mixtures were set up with enzyme and substrate (0.2 mg/mL) in a total reaction volume of 0.1 mL) in individual wells of 96-well microtiter plates, in 20 mM sodium acetate buffers at different pHs, with 0.1% 2-mercaptoethanol present. Control wells were set identically except for the […] of enzyme. At various time-points after incubation at room temperature, the reactions were quenched by the addition of an equal volume of 0.45M sodium borate, pH 10, with 0.25 mg/mL o-phthalaldehyde, and the fluorescence measured. In the absence of added enzyme, no measurable fluorescence is generated above background, even with extended incubations. In the presence of enzyme, there is a time-dependent increase in fluorescence.
Using this assay at pH 4.5, the ability of a number of compounds to inhibit the activity of Cathepsin Y was tested, by adding the desired concentration of the inhibitor in the incubation mixture along with enzyme and substrate, and measuring the decrease in fluorescence (if any) relative to enzyme control.

[2] = pH optimum of Cathepsin Y carboxypeptidase activity; conditions: 20 mM sodium acetate buffers, room temperature
Procedure: as §1, §2, §3

[3] = tested on: APP; assay: Proteolytic activity of purified Cathepsin Y on APP preparations; conditions: purified recombinant APP constructs and membrane-bound full-length APP
[4] = target: T1, Cathepsin Y; assay: Cleavage of synthetic oligopeptides by purified Cathepsin Y (RP-HPLC, amino-acid analysis); conditions: for cleavage product(s) of parent oligopeptide with Cathepsin Y: 50 μg/mL peptide, pH 4.5 or 5.5, 1 hour, 37° C
Procedure: In an effort to identify whether the enzyme has other proteolytic activity, a number of randomly selected synthetic oligopeptides were incubated with purified Cathepsin Y at pH 5.5 or 4.5. Specifically, purified Cathepsin Y was incubated with the selected synthetic oligopeptides (50 μg/mL) at either pH 4.5 or pH 5.5, for 1 hour at 37° C. Samples were quenched by the addition of trifluoroacetic acid to 1% final concentration, then analyzed by reverse phase HPLC on a Vydac C18 column, using a gradient of increasing acetonitrile in 0.1% trifluoroacetic acid. Individual peaks (parent and new product(s)) were collected, then analyzed by acid hydrolysis followed by amino-acid analysis.

[5] = Activity of Cathepsin Y on synthetic substrates used for assaying Cathepsin B, L or S
[6] = synthetic oligopeptides, pH 4.5 or 5.5

T1 sequence (Q9UBR2 62-303): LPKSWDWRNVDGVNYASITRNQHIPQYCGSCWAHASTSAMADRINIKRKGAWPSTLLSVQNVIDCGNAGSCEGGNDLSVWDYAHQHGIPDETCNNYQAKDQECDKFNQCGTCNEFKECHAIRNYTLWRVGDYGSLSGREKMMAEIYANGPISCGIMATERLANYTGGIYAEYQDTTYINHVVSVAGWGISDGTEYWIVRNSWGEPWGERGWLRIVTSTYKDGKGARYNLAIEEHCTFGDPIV

| cleavage product(s) of parent oligopeptide with Cathepsin Y [4] | Molecule | inhibition of Cathepsin Y activity [1] | also measured |
| --- | --- | --- | --- |
|  | O=C[C@H](Cc1ccccc1)NC(=O)C(c1ccccc1)c1ccccc1 [Example 3] | indicated inhibition of Cathepsin Y activity |  |
|  | O=C[C@H](Cc1ccccc1)NC(=O)CCCCc1ccccc1 [Example 4] | indicated inhibition of Cathepsin Y activity |  |
|  | O=C[C@H](Cc1ccccc1)NC(=O)C(=Cc1ccccc1)c1ccccc1 [Example 7] | indicated inhibition of Cathepsin Y activity |  |
|  | CC(C)[C@H](NC(=O)OCc1ccccc1)C(=O)N[C@H](C=O)Cc1ccccc1 [Example 15] (Cbz-Val-Phe-aldehyde) | indicated inhibition of Cathepsin Y activity |  |
|  | CC(C)[C@@H](NC(=O)OCc1ccccc1)C(=O)N[C@H](C=O)Cc1ccccc1 [Example 24] (Cbz-[dV]-Phe-aldehyde) | indicated inhibition of Cathepsin Y activity |  |
|  | O=C[C@H](Cc1ccc(OCc2ccccc2)cc1)NC(=O)C(c1ccccc1)c1ccccc1 [Example 45] | indicated inhibition of Cathepsin Y activity |  |
|  | CSCC[C@@H](C=O)NC(=O)[C@@H](NC(=O)OCc1ccccc1)C(C)C [Example 47] (Cbz-Val-Met-aldehyde) | indicated inhibition of Cathepsin Y activity |  |
|  | O=C[C@H](Cc1ccccc1)NC(=O)Cc1ccccc1 [Example 59] | indicated inhibition of Cathepsin Y activity |  |
|  | O=C[C@H](Cc1ccccc1)NC(=O)C1c2ccccc2Oc2ccccc21 [Example 64] | indicated inhibition of Cathepsin Y activity |  |
|  | O=C[C@H](Cc1ccccc1)NC(=O)N(c1ccccc1)c1ccccc1 [Example 75] | indicated inhibition of Cathepsin Y activity |  |
|  | Cathepsin Y: novel carboxypeptidase having a molecular weight of approximately 31 kD and the amino acid sequence set forth in SEQ ID No. 3 |  | pH optimum for carboxypeptidase activity [2]: about 4.5; effect on various APP preparations [3]: without effect; endopeptidase or aminopeptidase activity [4, 6]: No evidence of any endopeptidase or aminopeptidase activity; predominant proteolytic activity [4, 6]: carboxypeptidase activity; activity with known synthetic substrates for Cathepsin B, L or S [5]: No significant activity |
| EGYYGNYGV | EGYYGNYGV |  |  |
| EGYYGNYGVY; also recorded: EGYYGNYGV | EGYYGNYGVYA |  |  |
| FFDEPNPGVT | FFDEPNPGVTIY |  |  |
| YKRDMVGGVVI; also recorded: YKRDMVGGVV | YKRDMVGGVVIA |  |  |

| Molecule | cleavage product(s) of parent oligopeptide with Cathepsin Y [4] | inhibition of Cathepsin Y activity [1] | also measured |
| --- | --- | --- | --- |
| LFYDQSPTATI | LFYDQSPTAT; also recorded: LFYDQSPTA; also recorded: LFYDQSPT |  |  |
